Assay [1] relates to isolated spontaneously beating right atrium. Description: Spontaneously beating right atrium, organ bath. Conditions: 0.1-30 μM. It counts as cell-based, guinea-pig. As to the method: Organ bath experiments and tissue procurement. Guinea-pigs were killed by a blow on the head. Their hearts were quickly excised and trimmed of excess tissues. The atrium was carefully removed and placed at room temperature (20˜25° C.) in a Krebs solution of the following composition (mM): NaCl 113, KCl 4.8, CaCl2 2.2, KH2PO4 1.2, MgCl2 1.2, NaHCO3 25, dextrose 11.0; bubbled with a 95% O2+5% CO2 mixture, followed by separation of right and left atrium for subsequent experiments.
Spontaneously beating right atrium was dissected from the heart and mounted in a 10 ml organ bath with one end fixed and the other end connected to a force displacement transducer (Grass, Model FT03). The frequency of contraction was measured on a separate channel by a tachometer (Coulbourn, Model S77-26) connected to a high-speed videograph (Coulbourn, AT L19-69). These experiments were carried out at 32.5° C. in Krebs solution. The atria strip was pre-stretched to a baseline tension of 0.5 g and equilibrated for 90 min in aerated (95% O2+5% CO2) Krebs solution before the experimental protocols were initiated. The atria were then allowed a 30-60 min washout period to re-stabilize. KMUP-3 or KMUP-3 amine salt (0.1, 1.0, 10, 100 μM) were then cumulatively added to the organ bath. […]

Assay [2] concerns RhoA. Description: RhoA expression in electrically-stimulated left atria, Western blotting. It counts as cell-based, guinea-pig. The following applies: KMUP-3 0.1-10 μM. As to the method: (§1) Protein extraction and Western blotting analysis. Briefly, after incubation with test agents in an organ bath, isolated beating atrium was frozen and pulverized to a fine powder at the temperature of liquid nitrogen. Atrium powders were then homogenized in protein extraction reagent (Pierce Biotechnology, Inc., Rockford, Ill.) by sonication. The samples were sonicated 10 sec three times and centrifuged at 13,000 rpm at 4° C. for 30 min. The protein concentrations of supernatants were determined by using bovine serum albumin as the standard. The cell extracts were then boiled in a ratio of 4:1 with sample buffer (Tris 100 mM, pH 6.8; glycerol 20%, Sodium dodecyl sulfate (SDS) 4% and bromophenol blue 0.2%). Electrophoresis was performed using 10% SDS-PAGE and transferred to nitrocellulose membranes (Millipore Corp., Billerica, Mass.). […] The intensity of the bands was measured by densitometry. eNOS or phosphorylated eNOS were extracted from cell culture of neonatal myocytes, PA ring and aortic ring (2-3 mm) of rats and measured by Western blotting analysis.
(§2) PK, ROCKII and CIP-17 expression and pretreatment of beating left atrium. To examine whether KMUP-3 or KMUP-3 amine salt affects the protein expression in beating atrium, PKA, ROCKII, PKG and phosphorylated CIP-17 was determined by Western blotting, respectively. […]
(A western blot detects proteins with antibodies after separation by electrophoresis.)

Another assay relates to ROCKII. Briefly: ROCKII expression in electrically-stimulated left atria, Western blotting. It counts as cell-based, guinea-pig. As to the method: (§3) Protein extraction and Western blotting analysis. Briefly, after incubation with test agents in an organ bath, isolated beating atrium was frozen and pulverized to a fine powder at the temperature of liquid nitrogen. Atrium powders were then homogenized in protein extraction reagent (Pierce Biotechnology, Inc., Rockford, Ill.) by sonication. The samples were sonicated 10 sec three times and centrifuged at 13,000 rpm at 4° C. for 30 min. The protein concentrations of supernatants were determined by using bovine serum albumin as the standard. The cell extracts were then boiled in a ratio of 4:1 with sample buffer (Tris 100 mM, pH 6.8; glycerol 20%, Sodium dodecyl sulfate (SDS) 4% and bromophenol blue 0.2%). Electrophoresis was performed using 10% SDS-PAGE and transferred to nitrocellulose membranes (Millipore Corp., Billerica, Mass.). The membrane was blocked with Tris-buffered saline (TBS; 20 mM Tris and 137 mM NaCl, pH 7.6) containing 0.1% Tween 20 (TTBS) and 5% nonfat milk at room temperature for 1 h, washed with TTBS, and then incubated overnight at 4° C. in the appropriate primary antibody for PKARI, RhoA, ROCKII, p-CIP-17, CPI-17 and PKG1α1β. The membranes were washed in TTBS before being incubated with horseradish peroxidase-conjugated antibody against mouse, goat, or rabbit IgG for 1 hr. Membranes were then washed in TTBS and developed with the enhanced chemiluminescence for the detection of the specific antigen. The intensity of the bands was measured by densitometry. eNOS or phosphorylated eNOS were extracted from cell culture of neonatal myocytes, PA ring and aortic ring (2-3 mm) of rats and measured by Western blotting analysis.
as §2

The subject of another assay is PKA. Description: PKA expression in electrically-stimulated left atria, Western blotting. Format: cell-based, guinea-pig. On the procedure:
as §3, §2

The subject of the next assay is CPI-17. Description: CPI-17 phosphorylation in electrically stimulated beating left atria. Format: cell-based, guinea-pig. On the procedure:
as §1, §2

Assay [3] relates to RhoA. Description: RhoA activation of neonatal myocytes, affinity precipitation assay. Format: cell-based, rat. On the procedure: RhoA activation was determined using an affinity precipitation assay, which binds only the active GTP-bound form of Rho. In brief, sub-confluent neonatal rat myocytes were grown to approximately 85-90% confluence, cells were exposed to KMUP-3 or KMUP-3 amine salt with 10% FBS for 90 min at 37 before addition of lysis buffer (25 mM HEPES, pH 7.5, 150 mM NaCl, 1% Igepal CA-630, 10 mM MgCl2, 1 mM EDTA and 10% glycerol, 1 Ag/ml aprotinin, 10 Ag/ml leupeptin and 1 mmol/l […]) for 15 min at 4, cell lysates were clarified by centrifugation at 13000 g at 4 for 10 min, and equal volume of lysates were incubated with agarose conjugated rhotekin-RBD for 45 min at 4, then washed three time with lysis buffer. Agarose beads were boiled in SDS-PAGE sample buffer to release active RhoA in samples were resolved on a 12% polyacrylamide gel followed by immunoblotting with anti-Rho A (clone 55).

On to `Cn1c(=O)c2c(ncn2CCN2CCN(c3ccc([N+](=O)[O-])cc3)CC2)n(C)c1=O` [KMUP-3, 7-[2-[4-(4-nitrobenzene)piperazinyl]ethyl]-1,3-dimethylxanthine], for which the “Chronotropic effect (beating frequency)” value in assay [1] is recorded as “decreased”. For the same compound, the “Inotropic effect (contraction force)” value in assay [1] is listed as “concentration-dependently increased”. The RhoA expression entry in the assay on RhoA [2] is listed as “significantly increased”. Moreover, the ROCKII expression result in the assay with ROCKII (FIG. 13A, concentration not given) was “significantly increased”; with ROCKII (KMUP-3 0.1-10 μM), “significantly increased”. The PKA expression result in the assay on PKA (FIG. 13B, concentration not given) is reported as “significantly increased”; in the assay with PKA (KMUP-3 0.1-10 μM) it was “significantly increased”. Besides, the “Phosphorylation of CPI-17” value with CPI-17 is listed as “concentration-dependently increased”. Also, the “Rho A activation (active GTP-bound form)” value in the assay with RhoA [3] is “increased”.

The values are drawn from patent US20120321584A1, “PROCESSES FOR PREPARING AMINE SALTS OF KMUP-3 AND USE THEREOF” (KAOHSIUNG MEDICAL UNIVERSITY, priority 2011, published 2012).
